The test system of assay [1] is HTT. Description: RT-qPCR splicing assay, HTT AJ/CJ mRNA. Format: cell-based, human. The settings on record: A673 or K562 cells; for pIC50: decrease in canonical junction mRNA; for AC50: increase in alternative junction mRNA. In short, it runs like this:
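Following 24 h compound exposure at 37 °C (11 points, 3-fold, highest 10 uM; DMSO ≤0.25%), A673 or K562 lysates underwent RT-qPCR for exon-inclusion (AJ) and canonical (CJ) junctions of HTT and MYB. Relative quantification used housekeeping-gene ΔCt and DMSO-normalized ΔΔCt, converted to percentage response.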

Assay [2] deals with HiBit-tagged MYB in K562 cells. Description: HiBiT protein abundance assay, MYB. The settings on record: HiBiT-modified K562 cells, 24 hours, luminescence. Format: cell-based, human. As for the experimental part: Compounds described herein were used to screen for effects on quantitative protein abundance using a HiBit assay system (Promega). Quantitative protein abundance was determined by measuring the protein levels of HiBit-tagged protein targets expressed in cell culture via luminescence using the Nano-Glo HiBiT Lytic Detection System, which uses a split complementation assay format to reconstitute NanoBiT enzyme to generate a luminescent signal. A protein abundance assay was developed such that endogenous protein targets could be modified with the HiBiT peptide tag and their abundance could be assessed after compound treatment. Briefly, K562 cell lines containing a HiBiT-modification were treated with various compounds described herein (e.g., compounds of Formulas (I)). After treatment for 24 hours, the protein abundance of a specific target was determined by measuring luminescence.
Cells were maintained in IMDM with 10% FBS. Before the assay, cells were diluted with […] growth media (IMDM+[…] media) and were seeded in a 384-well plate at a density of 10000 cells/well (for each cell line listed in Table 8). Each compound was prepared as a 10-point 3-fold serial dilution in DMSO with the top dose at a final concentration of 10 μM in the well. Unmodified K562 cells were added at the previously specified density with DMSO to serve as an assay baseline and positive control (PC) and DMSO only with the respective modified cell lines was added to the negative control (NC) columns. Final DMSO concentration was kept at or below 0.25% o. Treated cell plates were placed in an incubator at 37° C. with […] for 24 hours. After 24 hours, 25 μL of Complete HiBit Lytic reagent was added to each well at room temperature (e.g. one plate requiring 10 mL Lytic Buffer, 100 μL LgBiT Protein, 200 μL Lytic Substrate), shaken for 5 minutes at 600 RPM, then left to sit for 10 minutes for signal to stabilize before reading on a Spark Cyto plate reader (Tecan) with a 500 ms measurement time.
To determine compound effects on protein abundance of each target in Table 9, the percent response for each respective cell line was calculated at each compound concentration as follows:
For the normalized response at each concentration, a four-parameter logistical regression was fit to the data and the response was interpolated at the […] to determine a concentration for protein abundance at 50% o (IC50) the untreated control.

pIC50: −log10 of the molar value. Bounds are passed on as bounds.

For `CN(c1ccc2c(n1)OCc1cc(-c3cnc(=O)[nH]c3)ccc1-2)[C@@H]1C[C@H]2CC[C@@H](C1)N2` [Compound 161], the pIC50 (commonly −log10 of the IC50, conventionally taken in molar units) is < 5.00 in assay [1] (Homo sapiens, 24 h) and < 5.00 in assay [2]. The half-maximal activity concentration (AC50) (as a rule, the concentration giving half of the maximal activity seen) in assay [1] (Homo sapiens, 24 h) is > 10000 nM.
Take `CN(c1ccc2c(n1)OCc1cc(-c3ccc(=O)n(C)c3)ccc1-2)[C@@H]1C[C@H]2CC[C@@H](C1)N2` [Compound 158]: in assay [1] (Homo sapiens, 24 h), the pIC50 was 6.00 to 7.00 and the AC50 was in the range of 100 to 1000 nM. Further, the pIC50 in assay [2] is 6.00 to 7.00.
As for `CN(c1ccc2c(n1)COc1cc(-n3cccn3)ccc1-2)[C@@H]1C[C@H]2CC[C@@H](C1)N2` [Compound 124], the pIC50 in assay [1] (24 hours) and in assay [2] was 5.00 to 6.00 each time. This molecule also yielded an AC50 in assay [1] (24 hours) of 1000 to 10000 nM.
Regarding `c1cnn(-c2ccc3c(c2)COc2nc(NC4CNC4)ccc2-3)c1` [Compound 166], in assay [1] (Homo sapiens, 24 h), the pIC50 is < 5.00 and the AC50 was > 10000 nM. Also, in assay [2], the pIC50 was 5.00 to 6.00.
In assay [1] (Homo sapiens, 24 h), `Cc1[nH]ncc1-c1ccc2c(c1)COc1nc(N(C)[C@@H]3C[C@H]4CC[C@@H](C3)N4)ccc1-2` [Compound 154] gave a pIC50 of 6.00 to 7.00 and an AC50 of 100 to 1000 nM. The same molecule had a pIC50 in assay [2] of 6.00 to 7.00.
`CN(c1ccc2c(c1)OCc1cc(-n3cccn3)ccc1-2)[C@@H]1C[C@H]2CC[C@@H](C1)N2` [Compound 105]: in assay [1] (Homo sapiens, 24 hours), the negative-log IC50 (pIC50) was < 5.00 and the concentration at half-maximal activity (AC50) was > 10000 nM. This molecule gave a pIC50 in assay [2] of 5.00 to 6.00.
As to `COc1cc(-c2ccc3c(c2)COc2nc(N4CCC(N(C)C5CCC5)C4)ccc2-3)cnn1` (stereo not drawn) [Compound 307, N-cyclobutyl-1-[8-(6-methoxypyridazin-4-yl)-6H-isochromeno[3,4-b]pyridin-3-yl]-N-methylpyrrolidin-3-amine], the pIC50 in assay [1] (Homo sapiens, 24 h) is 6.00 to 7.00; in assay [2], 6.00 to 7.00. The same molecule came in with an AC50 in assay [1] (Homo sapiens, 24 h) of 100 to 1000 nM.
As for `CN(c1ccc2c(n1)OCc1cc(-n3cccn3)ccc1-2)[C@@H]1C[C@H]2CC[C@@H](C1)N2` [Compound 149], the pIC50 is 6.00 to 7.00 in assay [1] (Homo sapiens, 24 h) and 6.00 to 7.00 in assay [2]. Besides, the AC50 in assay [1] (Homo sapiens, 24 h) was < 100 nM.
In the case of `COc1cc(-c2ccc3c(c2)COc2nc(N(C)[C@@H]4C[C@H]5CC[C@@H](C4)N5)ccc2-3)cnn1` [Compound 159], in assay [1] (Homo sapiens, 24 h), the pIC50 was > 7.00 and the AC50 was < 100 nM. The pIC50 in assay [2] was > 7.00.
Turning to `COc1cc(-c2ccc3c(c2)COc2nc(N(C)[C@@H]4C[C@H]5CC[C@@H](C4)N5)ccc2-3)ccn1` [Compound 156], in assay [1] (Homo sapiens, 24 h), the pIC50 is > 7.00 and the AC50 is < 100 nM. Also, the pIC50 in assay [2] was 6.00 to 7.00.
In the case of `c1cc2c(cc1-c1cn[nH]c1)COc1nc(O[C@@H]3C[C@H]4CC[C@@H](C3)N4)ccc1-2` [Compound 218], in assay [1] (Homo sapiens, 24 h), the pIC50 was > 7.00 and the AC50 is < 100 nM. The pIC50 in assay [2] was > 7.00.
`CN(c1ccc2c(c1)COc1cc(-n3cccn3)ccc1-2)C1CC(C)(C)NC(C)(C)C1` [Compound 117]: in assay [1] (Homo sapiens, 24 h), the pIC50 is < 5.00 and the AC50 was > 10000 nM. Besides, in assay [2], the pIC50 is 5.00 to 6.00.
Regarding `CN(c1ccc2c(n1)OCCc1cc(-c3cn[nH]c3)ccc1-2)[C@@H]1C[C@H]2CC[C@@H](C1)N2` [Compound 146], the pIC50 in assay [1] (Homo sapiens, 24 h) is 5.00 to 6.00; in assay [2], 5.00 to 6.00. In assay [1] (Homo sapiens, 24 h), this molecule registered an AC50 of 1000 to 10000 nM.
For the molecule `COc1cc(-c2ccc3c(c2)COc2nc(N4CCC(N(C)C)C4)ccc2-3)cnn1` (stereo not drawn) [Compound 306, 1-[8-(6-methoxypyridazin-4-yl)-6H-isochromeno[3,4-b]pyridin-3-yl]-N,N-dimethylpyrrolidin-3-amine], the pIC50 in assay [1] (Homo sapiens, 24 h) was 6.00 to 7.00; in assay [2], 5.00 to 6.00. Further, the AC50 in assay [1] (Homo sapiens, 24 h) lay in the range of 1000 to 10000 nM.

Source of the values: US20240400584A1, “COMPOUNDS AND METHODS FOR MODULATING SPLICING” (REMIX THERAPEUTICS INC., priority 2021, published 2024).
